Values after ≈ are worked out from the molar mass of the structure shown. Each block holds one molecule with its values, some of them ahead of it.
What was measured:
Substance-P receptor [1] = biological target: T1, Substance-P receptor (Homo sapiens, UniProt P25103); test: Displacement of [3H]-substance P from human NK1 receptor expressed in CHO cells; assay type: cell-based
[2] = pKa value was evaluated; assay type: physicochemical
Substance-P receptor [3] = biological target: T1, Substance-P receptor; test: Displacement of [3H]-substance P from human NK1 receptor expressed in CHO cells, at 10e-5 M; assay type: cell-based
Caco-2 = test: Caco-2 permeability was measured; assay type: functional, cell-based; settings: Homo sapiens
Cavia porcellus [4] = test: Inhibition of SP-induced pulmonary edema in guinea-pig 30 min after oral administration at a dose of 10 mg/kg; assay type: functional; settings: 0.5 h
Cavia porcellus [5] = test: Inhibition of SP-induced pulmonary edema in guinea-pig 60 min after oral administration at a dose of 10 mg/kg; assay type: functional; settings: 1 h
Cavia porcellus [6] = test: Inhibition of SP-induced pulmonary edema in guinea-pig 240 min after oral administration at a dose of 10 mg/kg; assay type: functional; settings: 4 h
Rattus norvegicus = species: Rattus norvegicus; test: Inhibition of contraction induced by 100 mM KCl in isolated rat aorta; assay type: functional
Cavia porcellus [7] = test: Inhibition of SP-induced pulmonary edema in guinea-pig 120 min after oral administration at a dose of 10 mg/kg; assay type: functional; settings: 2 h
[8] = LogD distribution coefficient between octanol and PBS at pH7.4; assay type: physicochemical; settings: pH 7.4, read-out: LogD7.4
[9] = Solubility was measured; assay type: physicochemical

T1 sequence (P25103 whole entry): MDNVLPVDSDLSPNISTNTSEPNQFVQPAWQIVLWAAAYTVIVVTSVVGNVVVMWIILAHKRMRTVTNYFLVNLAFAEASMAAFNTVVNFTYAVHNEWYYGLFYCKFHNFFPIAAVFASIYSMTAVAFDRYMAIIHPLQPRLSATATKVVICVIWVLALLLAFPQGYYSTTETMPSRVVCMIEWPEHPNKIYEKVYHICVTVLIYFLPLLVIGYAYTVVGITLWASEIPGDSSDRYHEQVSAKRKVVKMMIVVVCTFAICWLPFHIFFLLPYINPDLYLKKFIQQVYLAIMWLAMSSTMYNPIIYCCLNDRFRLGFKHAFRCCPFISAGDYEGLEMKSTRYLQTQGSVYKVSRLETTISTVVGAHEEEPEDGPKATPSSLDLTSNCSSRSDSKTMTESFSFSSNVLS

Compound: CCOC(=O)N1CCN(C(COCc2cc(C(F)(F)F)cc(C(F)(F)F)c2)c2ccccc2)CC1 (stereo not given)
Ki (Substance-P receptor [1]): 63.1 nM

Compound: Oc1n[nH]c(CN2CCN(C(COCc3cc(C(F)(F)F)cc(C(F)(F)F)c3)c3ccccc3)CC2)n1 (stereo not given)
Ki (Substance-P receptor [1]): 15.8 nM

Compound: Cc1ccccc1C(COCc1cc(C(F)(F)F)cc(C(F)(F)F)c1)N1CCNCC1 (stereo not given)
Ki (Substance-P receptor [1]): 1 nM

Compound: NC(=O)CN1CCN([C@H](COCc2cc(C(F)(F)F)cc(C(F)(F)F)c2)c2ccccc2)CC1
pKa [2]: 6.2
Ki (Substance-P receptor [1]): 7.94 nM

Compound: C[C@@H](OC[C@@H](c1ccccc1)N1CCN(CCOCC(=O)O)CC1)c1cc(C(F)(F)F)cc(C(F)(F)F)c1
inhibition (Substance-P receptor [3]): < 20%

Compound: Clc1ccc(COCC(c2ccccc2)N2CCNCC2)cc1Cl (stereo not given)
Ki (Substance-P receptor [1]): 100 nM

Compound: C[C@H](OC[C@@H](c1ccccc1)N1CCN(CC(=O)O)CC1)c1cc(C(F)(F)F)cc(C(F)(F)F)c1
Ki (Substance-P receptor [1]): 3.16 nM

Compound: FC(F)(F)c1cc(COCC(c2ccco2)N2CCNCC2)cc(C(F)(F)F)c1 (stereo not given)
Ki (Substance-P receptor [1]): 158 nM

Compound: C[C@@H](OC[C@H](c1ccccc1)N1CCN(CC(=O)O)CC1)c1cc(C(F)(F)F)cc(C(F)(F)F)c1
inhibition (Substance-P receptor [3]): < 20%

Compound: FC(F)(F)c1cc(COCC(c2ccccc2)N2CCN(CCCCc3nnn[nH]3)CC2)cc(C(F)(F)F)c1 (stereo not given)
Papps (Caco-2): 2.6 ×10⁻⁶ cm/s
inhibition in vivo at 10 mg/kg (Cavia porcellus [4]): 65%
inhibition in vivo at 10 mg/kg (Cavia porcellus [5]): 99%
inhibition in vivo at 10 mg/kg (Cavia porcellus [6]): 20%
pD2 (Rattus norvegicus): <4
inhibition in vivo at 10 mg/kg (Cavia porcellus [7]): 65%

Compound: COc1ccccc1C(COCc1cc(C(F)(F)F)cc(C(F)(F)F)c1)N1CCNCC1 (stereo not given)
Ki (Substance-P receptor [1]): 6.31 nM

Compound: FC(F)(F)c1cc(COCC(c2ccccc2)N2CCN(Cc3nn[nH]n3)CC2)cc(C(F)(F)F)c1 (stereo not given)
Ki (Substance-P receptor [1]): 63.1 nM

Compound: O=C(O)COCCN1CCN(C(COCc2cc(C(F)(F)F)cc(C(F)(F)F)c2)c2ccccc2)CC1 (stereo not given)
logD [8]: 2.17
solubility [9]: > 2000 µg/mL
Papps (Caco-2): 4.2 ×10⁻⁶ cm/s
inhibition in vivo at 10 mg/kg (Cavia porcellus [4]): 53%
inhibition in vivo at 10 mg/kg (Cavia porcellus [5]): 61%
inhibition in vivo at 10 mg/kg (Cavia porcellus [6]): 29%
pD2 (Rattus norvegicus): <4
Ki (Substance-P receptor [1]): 15.8 nM
inhibition in vivo at 10 mg/kg (Cavia porcellus [7]): 54%

Compound: NC(=O)CN1CCN([C@@H](COCc2cc(C(F)(F)F)cc(C(F)(F)F)c2)c2ccccc2)CC1
logD [8]: 3.26
solubility [9]: 2 µg/mL (≈ 4.09 µM)
pKa [2]: 6.2
Papps (Caco-2): 7.9 ×10⁻⁶ cm/s
pD2 (Rattus norvegicus): 4.27
Ki (Substance-P receptor [1]): 10 nM

Compound: FC(F)(F)c1cc(COCC(c2ccc(Cl)c(Cl)c2)N2CCNCC2)cc(C(F)(F)F)c1 (stereo not given)
Ki (Substance-P receptor [1]): 6.31 nM

Compound: O=C(O)CN1CCN(C(COCc2cc(C(F)(F)F)cc(C(F)(F)F)c2)c2ccccc2)CC1 (stereo not given)
logD [8]: 2.35
solubility [9]: 1300 µg/mL (≈ 2650 µM)
Papps (Caco-2): 9.6 ×10⁻⁶ cm/s
inhibition in vivo at 10 mg/kg (Cavia porcellus [4]): 84%
inhibition in vivo at 10 mg/kg (Cavia porcellus [5]): 76%
inhibition in vivo at 10 mg/kg (Cavia porcellus [6]): 53%
pD2 (Rattus norvegicus): <4
Ki (Substance-P receptor [1]): 15.8 nM
inhibition in vivo at 10 mg/kg (Cavia porcellus [7]): 68%

Compound: O=C(O)CCCC(=O)N1CCN(C(COCc2cc(C(F)(F)F)cc(C(F)(F)F)c2)c2ccccc2)CC1 (stereo not given)
inhibition (Substance-P receptor [3]): < 20%

Compound: NC(=O)COCCN1CCN(C(COCc2cc(C(F)(F)F)cc(C(F)(F)F)c2)c2ccccc2)CC1 (stereo not given)
pKa [2]: 7.4
Ki (Substance-P receptor [1]): 3.16 nM

Further lines, with some results ahead:

Ki (Substance-P receptor [1]): 50.1 nM
Compound: COc1ccc(C(COCc2cc(C(F)(F)F)cc(C(F)(F)F)c2)N2CCNCC2)cc1 (stereo not given)

Ki (Substance-P receptor [1]): 398 nM
Compound: Clc1cccc(COCC(c2ccccc2)N2CCNCC2)c1 (stereo not given)

Ki (Substance-P receptor [1]): 25.1 nM
Compound: Cc1cc(C)cc(COCC(c2ccccc2)N2CCNCC2)c1 (stereo not given)

logD [8]: 2.41
solubility [9]: 200 µg/mL (≈ 463 µM)
Compound: FC(F)(F)c1cc(COCC(c2ccccc2)N2CCNCC2)cc(C(F)(F)F)c1 (stereo not given)
Papps (Caco-2): 2.1 ×10⁻⁶ cm/s
pD2 (Rattus norvegicus): 5.38

Ki (Substance-P receptor [1]): 3.16 nM
Compound: Clc1cc(Cl)cc(COCC(c2ccccc2)N2CCNCC2)c1 (stereo not given)

Ki (Substance-P receptor [1]): 126 nM
Compound: COc1cc(COCC(c2ccccc2)N2CCNCC2)cc(OC)c1OC (stereo not given)

Ki (Substance-P receptor [1]): 3.16 nM
Compound: Cc1cccc(C(COCc2cc(C(F)(F)F)cc(C(F)(F)F)c2)N2CCNCC2)c1 (stereo not given)

inhibition (Substance-P receptor [3]): < 20%
Compound: c1ccc(COCC(c2ccccc2)N2CCNCC2)cc1 (stereo not given)

Ki (Substance-P receptor [1]): 2 nM
Compound: Fc1cccc(C(COCc2cc(C(F)(F)F)cc(C(F)(F)F)c2)N2CCNCC2)c1 (stereo not given)

Ki (Substance-P receptor [1]): 1.58 nM
Compound: FC(F)(F)c1cc(COCC(c2cccc(Cl)c2)N2CCNCC2)cc(C(F)(F)F)c1 (stereo not given)

Ki (Substance-P receptor [1]): 200 nM
Compound: Fc1cc(F)cc(COCC(c2ccccc2)N2CCNCC2)c1 (stereo not given)

Source: ChEMBL document CHEMBL1136550, “Discovery of orally bioavailable NK1 receptor antagonists” (Bioorg Med Chem Lett, 2003)
